Results: patent US20190060428A1, “FORMULATIONS FOR NEOPLASIA VACCINES AND METHODS OF PREPARING THEREOF” (The Broad Institue Inc., priority 2015, published 2019)

experiment: physchem; conditions: pH 6

| Substance | solubility |
| --- | --- |
| H-EEFNRRVRENPWDTQLWMAFVAFQDE-OH | < 2 mg/mL |
| H-VAGLAASGLHGSAWLVPGEQPVSGPHHGKQ-OH | > 2 mg/mL |
| H-PASAKSRREFDKIELAYRR-OH | > 2 mg/mL |
| H-DHAPEFPAREMLLKYQKLLSQER-OH | > 2 mg/mL |
| H-SGARIGAPPPHATATSSSSFMPGTWGREDL-OH | > 2 mg/mL |
| H-DLSYVSDQNGGVPDQILLHLRPTED-OH | > 2 mg/mL |
| H-DGVSEEFWLVDLLPSTHYT-OH | < 2 mg/mL |
| H-ALSLTPGLRIGPSGLFLVFLAESAVDKGHPNRS-OH | > 2 mg/mL |
| H-LMGRLQHTFKQKMTGVGASLEKR-OH | > 2 mg/mL |
| H-RARQILIASHLPFYELRHNQVES-OH | > 2 mg/mL |
| H-SLRNNMFEISDRFIGIYKTYNITK-OH | > 2 mg/mL |
| H-TLKEEVNELQYRQKQLELLITNLMRQVD-OH | < 2 mg/mL |
| H-TLDDIKEWLEDEGQVLNIQMRRTLHK-OH | < 2 mg/mL |
| H-GTKALQLHSIAGRWPRMEPWVVESMSLGVP-OH | > 2 mg/mL |
| H-TKLKSKAPHWTNCILHEYKNLSTS-OH | > 2 mg/mL |
| H-SEIDFPMARSKLLKKKLPSKDL-OH | > 2 mg/mL |
| H-IGALNPKRAAFFAEHYESWE-OH | < 2 mg/mL |
| H-DHAPEFPAREMLLKYQKLLCQERYFL-OH | < 2 mg/mL |
| H-DGGRQHSGPRRHSGAGPKPSSSEWAVCWAP-OH | > 2 mg/mL |
| H-EDSKYQNLLPFFVGHNMLLVSEE-OH | < 2 mg/mL |
| H-NQVLASRYGIRGFSTIKIFQKGESPV-OH | > 2 mg/mL |
| H-AAVDSVTIPPAQCYLSLLHLQQRRMQSA-OH | > 2 mg/mL |
| H-AALCPASRALEEKKGNYV-OH | > 2 mg/mL |
| H-WCTEMKRVFGFPVHYTDVSNMS-OH | > 2 mg/mL |
| H-GSGALGAVGATKVPRNQDWL-OH | > 2 mg/mL |
| H-PENDDLFMMPRIVDVTSLATEGG-OH | > 2 mg/mL |
| H-YRMYQKGQETSTNLIASIFA-OH | < 2 mg/mL |

| Substance | solubility |
| --- | --- |
| H-YLSHTLGAASSFMRPTVPPPQF-OH | > 2 mg/mL |
| H-LVGQLKRVPRTGRVYRNVQRPESVS-OH | > 2 mg/mL |
| H-GRMSPSQFARVPGYVGSPLAAMNPK-OH | > 2 mg/mL |
| H-RQRRGRLGLPGEAGLEGFEPSDALGPD-OH | > 2 mg/mL |
| H-DEQGREAELARSGPSAAGPVRLKPGLVPGL-OH | > 2 mg/mL |
| H-DKGHQFHVHPLLHSGDDLDP-OH | > 2 mg/mL |
| H-DNHLRRNRLIVVDLFHGQL-OH | > 2 mg/mL |
| H-SKRGVGAKTLLLPDPFLFWPCLEGTRRSL-OH | > 2 mg/mL |
| H-ADRRRQRSTFRAVLHFVEGGESEE-OH | < 2 mg/mL |
| H-NNGPVTILQRIHHMAASHVNITS-OH | < 2 mg/mL |
| H-SMWKGELYRQNRFASSKESAKLYGS-OH | < 2 mg/mL |
| H-TWAGHVSTALARPLGAPWAEPGSCGPGTN-OH | > 2 mg/mL |
| H-TTTSVKKEELVLSEEDFQGITPGAQ-OH | < 2 mg/mL |
| H-LNTGLFRIKFKEPLENLI-OH | > 2 mg/mL |
| H-DHVSIILLSATIPNALEFADWIG-OH | < 2 mg/mL |
| H-ARLQSKEYPVIFKSIMRQRLISPQL-OH | > 2 mg/mL |
| H-DRSVLAKKLKFVTLVFRHGDRSPID-OH | > 2 mg/mL |
| H-GLEQLESIINFEKL-OH | > 2 mg/mL |
| H-GPLQLPVTRKNMPLPGVVKLPPLPGS-OH | > 2 mg/mL |
| H-WDGPPENDMLLKEICGSLIP-OH | > 2 mg/mL |
| H-FPVVQSTEDVFPQGLPNEYAFVT-OH | > 2 mg/mL |
| H-TTVTHERKQAKVVNPPIQEVGKGARK-OH | > 2 mg/mL |
| H-SQSSTPAMLFPAPAAHRTLTYLSQ-OH | > 2 mg/mL |
| H-SPQSGGAATLAAQARLQPVHLDVWGEHERG-OH | > 2 mg/mL |
| H-EAAFSVGATGIITDYPTALRHYLDNHG-OH | < 2 mg/mL |
| H-GSYLVALGAHTGEES-OH | > 2 mg/mL |
| H-EQGPWQSEGQTWRAAGGRVPVPCPAAGPG-OH | > 2 mg/mL |

The next lines start with the values.

| solubility | Substance |
| --- | --- |
| > 2 mg/mL | H-VEQGHVRVGPDVVTHPAFLV-OH |
| > 2 mg/mL | H-LGETMGQVTEKLQPTYMEET-OH |
| > 2 mg/mL | H-WTPAAPTAMAEVGPGHTPAHPSQGAVPP-OH |
| > 2 mg/mL | H-DSPAGPRRKECTMALAPNFTANNR-OH |
| < 2 mg/mL | H-KQYLDHSGNLMSMHNIKIFMFQLLRG-OH |
| < 2 mg/mL | H-TISLLLIFYNTKEIARTEEHQE-OH |
| > 2 mg/mL | H-LLTDRNTSGTTFTLLGVSDYPELQVPLFLVFLA-OH |
| > 2 mg/mL | H-GSVLQFMPFTTVSELMKVSAMSSPKV-OH |
| > 2 mg/mL | H-SRLQTRKNKKLALSSTPSNIAPSD-OH |
| > 2 mg/mL | H-LPDEVSGLEQLESIINFEKLTEWTSSNVME-OH |
| > 2 mg/mL | H-IAMGFPQKDLKAYTGTIL-OH |
| > 2 mg/mL | H-RGQIKLADFRLARLYSSEESR-OH |
| > 2 mg/mL | H-FAKGFRESDLNSWPVAPRPLLSV-OH |
| < 2 mg/mL | H-TSGSSTALPGSNPSTMDSGSGD-OH |
| > 2 mg/mL | H-FVGKLQRHPVAVDVLL-OH |
| > 2 mg/mL | H-MSQDIKKADEQIESMTYSTERKT-OH |
| > 2 mg/mL | H-LENNANHDETSFLLPRKESNIVD-OH |
| > 2 mg/mL | H-HLLQKQTSIQSPSLYGNSSPPLNK-OH |
| > 2 mg/mL | H-TKDRDLLVVAHDLIWKMSPRTGDAKPS-OH |
| > 2 mg/mL | H-LLDILDTAGREEYSAMRDQYMRT-OH |
| > 2 mg/mL | H-SHHTHSYQRYSHPLFLPGHRLDPPI-OH |
| > 2 mg/mL | H-MAGPKGFQYRALYPFRRER-OH |
| > 2 mg/mL | H-STQHADLTIIDNIKEMNFLRRYK-OH |
| < 2 mg/mL | H-DVTYDGHPVLGSPYTVEASL-OH |
| > 2 mg/mL | H-DDSLHIQATYISGPVLAGSGD-OH |
| > 2 mg/mL | H-SRNTGHLHPTPRFPLLRWTQEPQPLE-OH |

| solubility | Substance |
| --- | --- |
| < 2 mg/mL | H-EYWKVLDGELEVAPEYPQSTARDWL-OH |
| > 2 mg/mL | H-TIKNSDKNVVLEHFG-OH |
| > 2 mg/mL | H-VQLSIQDVIRRARLSTVPTAQRVALRSGWI-OH |
| < 2 mg/mL | H-DVGVNSLQQYYLSPDLHFSLIQKENLD-OH |
| > 2 mg/mL | H-GSTLSPVPWLPSEEFTLWSSLSPPG-OH |
| > 2 mg/mL | H-KHLPGVNFPGNQWNPVEGILPS-OH |
| > 2 mg/mL | H-DGAWPVLLDKFVEWYKDKQMS-OH |
| > 2 mg/mL | H-GTEPEPAFQDDAVNAPLEFKMAAGSSG-OH |
| < 2 mg/mL | H-AIISSLFVSYFLYR-OH |
| > 2 mg/mL | H-GHQKLPGKIHLFEAEFTQVAKKEPDG-OH |
| < 2 mg/mL | H-KQGWTTEGIWKDVYIIKL-OH |
| > 2 mg/mL | H-PAHPSQGAVPPSRAAAEPHLKPSPSELQTA-OH |
| > 2 mg/mL | H-PGGDSGELITDAHELGVAHPPGY-OH |
| > 2 mg/mL | H-SPIKLVQKVASKIPFPDRITEESV-OH |
| > 2 mg/mL | H-TAQFAPSPGQPPALSPSYPGHRLPLQQG-OH |
| > 2 mg/mL | H-VPRIAELMNKKLPSFGPYLE-OH |
| > 2 mg/mL | H-MPPPGALMGLALKKKSIPQPTN-OH |
| > 2 mg/mL | H-GDQYKATDFVADWAGTFKMVFTPKDGSG-OH |
| > 2 mg/mL | H-VSGLEQLESIINFEKL-OH |
| > 2 mg/mL | H-EDSDKLFESKAELADHQKF-OH |
| > 2 mg/mL | H-TFPKKIQMLARDFLDEY-OH |
| > 2 mg/mL | H-TNGPEKNSSSFPSSVDYAASGPRKL-OH |
| < 2 mg/mL | H-LHFIMPEKFSFWEDFEE-OH |
| < 2 mg/mL | H-FKMDRQGVTQVLSCLSYISALGMMT-OH |
| > 2 mg/mL | H-LPDEVSGLEQLESIINFEKL-OH |
